Experimental findings from US20200087340A1, “LIF/LIFR ANTAGONIST IN ONCOLOGY AND NONMALIGNANT DISEASES” (Evestra, Inc., priority 2018, published 2020) are described below.

The test system of one assay is RPMI-8226. The experiment in a line: NCI-60 screening, Leukemia. It is filed as cell-based, human.
For another assay, the system named is NCI-H226. The experiment in a line: NCI-60 screening, Non-Small Cell Lung Cancer. It is filed as cell-based, human.
The test system of the next assay is NCI-H522. Put plainly: NCI-60 screening, Non-Small Cell Lung Cancer. It is filed as cell-based, human.
A further assay has as its system UACC-62. Put plainly: NCI-60 screening, Melanoma. It is filed as cell-based, human.
The subject of another assay is OVCAR-8. The experiment in a line: NCI-60 screening, Ovarian Cancer. It is filed as cell-based, human.
Another assay relates to SK-OV-3. Put plainly: NCI-60 screening, Ovarian Cancer. It is filed as cell-based, human.
In a further assay the test system is SN12C. Put plainly: NCI-60 screening, Renal Cancer. It counts as cell-based, human.
The next assay has as its system HS 578T. The experiment in a line: NCI-60 screening, Breast Cancer. It is filed as cell-based, human.
Another assay relates to T-47D. The experiment in a line: NCI-60 screening, Breast Cancer. It is filed as cell-based, human.
A further assay deals with MDA-MB-468. The experiment in a line: NCI-60 screening, Breast Cancer. It counts as cell-based, human. On the procedure: EC 330 was also tested using the NCI-60 Screening Methodology. The human tumor cell lines of the cancer screening panel are grown in RPMI 1640 medium containing 5% fetal bovine serum and 2 mM L-glutamine. For a typical screening experiment, cells are inoculated into 96 well microtiter plates in 100 μL at plating densities ranging from 5,000 to 40,000 cells/well depending on the doubling time of individual cell lines. After cell inoculation, the microtiter plates are incubated at 37° C., 5% CO2, 95% air and 100% relative humidity for 24 h prior to addition of experimental drugs. […]
Following drug addition, the plates are incubated for an additional 48 h at 37° C., 5% CO2, 95% air, and 100% relative humidity. […] Bound stain is subsequently solubilized with 10 mM trizma base, and the absorbance is read on an automated plate reader at a wavelength of 515 nm. […] Using the seven absorbance measurements [time zero, (Tz), control growth, (C), and test growth in the presence of drug at the five concentration levels (Ti)], the percentage growth is calculated at each of the drug concentrations levels. Percentage growth inhibition is calculated as: […]
Three dose response parameters are calculated for each experimental agent. […] The drug concentration resulting in total growth inhibition (TGI) is calculated from Ti=Tz. […]

Assay [1] relates to human umbilical vein endothelial cells (HUVEC). Put plainly: Matrigel in vitro HUVECs tube formation assay (angiogenesis). It counts as cell-based. To be noted: 1 μM concentration, all measured time points. On the procedure:
Matrigel in vitro HUVECs tube formation assay: The tube formation assay was performed using 12-well plate coated with 100 μL Matrigel basement membrane matrix (BD Bioscience) per well and polymerized at 37° C. for 30 min. Human umbilical vascular endothelial cells (HUVECs) suspended in M199 medium containing 2% FBS were plated on the Matrigel at a density of 2×10^5 cells/well. […] After 8 h, the Matrigel-induced morphological changes were photographed and the extent of capillary tube formation was evaluated by measuring the total tube length per field.

Assay [2] concerns IGROV1 (Ovarian) Xenograft. Put plainly: Tumor xenograft study, IGROV1. It is filed as in vivo, mice. The procedure: Uniform suspensions of human breast cancer MDA-MB-231 and human ovarian cancer IGROV1 cells (2×10^6) in 100 μL (0.02 carboxymethyl cellulose in phosphate buffered saline) were injected subcutaneously into the right and left flanks of 4- to 5-week-old female athymic nude mice (Charles River Laboratories). After 10 days, when the tumor […] reaches 100 mm^3, the mice were randomly allocated to 3 groups of each containing 6 animals. […] All drug was suspended in PBS followed by sonication (15 seconds with an intermittent interval of 5 seconds) for 1 minute. Tumors were allowed to reach palpability before drug intervention. Tumor size was measured every 3 days using digital Vernier Calipers and tumor volume was calculated using the ellipsoid formula [D×(d2)]/2, where D is the large diameter of the tumor and d represents the small diameter. On day 31, the mice were euthanized and tumors were harvested for protein and gene expression studies. […] FIG. 6B depicts a graph of tumor volume vs. time for the administration of EC300 at 2.5 mg/kg twice weekly in the MDA-MB-231 (TNBC) Xenograft. […] FIG. 7 depicts a graph of tumor volume vs. time for the administration of EC300 at 5 mg/kg 5 days per week in the IGROV1 (Ovarian) Xenograft. […] STAT3 phosphorylation is reduced in tumors that underwent treatment compared to control which is an indication of LIF downstream target.

The structures appear in SMILES notation. A value given as a limit tells only on which side of the number the result lay.

`C#CC(F)(F)[C@]1(O)CCC2C3CCC4=CC(=O)CCC4=C3C(c3ccc(C4CC4)cc3)C[C@@]21C` (stereo partly drawn) [EC330, 17α-(1,1-difluoro-2-propyn-1-yl)-17β-hydroxy-11β-[4-p-(cyclopropyl)phenyl]estra-4,9-dien-3-one]: the “TGI (log10TGI)” value in the assay on RPMI-8226 is given as −6.24; in the assay on NCI-H226, −5.04; in the assay with NCI-H522 it was less than −8.00; in the assay with UACC-62 it was −5.27; in the assay with OVCAR-8 it was −4.43; with SK-OV-3 it was −6.55. Moreover, the “TGI (log10TGI)” value was −4.58 in the assay with SN12C, −4.99 with HS 578T, −5.00 with T-47D and −6.09 in the assay on MDA-MB-468. For the same compound, in assay [1], the tube formation result is reported as “complete abrogation of tube formation”. Moreover, the antitumor activity result in assay [2] (5 mg/kg (5 days per week), 4 weeks, IGROV1 xenograft) is given as “potent antitumor activity”. Further, in assay [2] (IGR-OV1 ovarian cancer xenograft tumors), the “apoptosis in xenograft tumors” value is “induced apoptosis dose dependently”. Also, the tumor growth result in assay [2] (ovarian cancer model) is listed as “significantly reduced”. Moreover, the “STAT3 phosphorylation in tumors” value in assay [2] (treated compared to control) is recorded as “reduced”.
